The record followed here is PMC8122671, “New Succinimides with Potent Anticancer Activity: Synthesis, Activation of Stress Signaling Pathways and Characterization of Apoptosis in Leukemia and Cervical Cancer Cells” (International Journal of Molecular Sciences, 2021).

Structures are written as SMILES. Entries after “also recorded” stand apart in the source; their conditions may differ. Where a name gives a salt, the structure may show the parent alone. Read-outs that look alike come from different tables or passages of the source. Where only a bound is given, the exact number is not on record here.

Data set [1] concerns MOLT-4 (Human T-Lymphoid Cell Line). In words: MTT cytotoxicity assay, MOLT-4. In kind it is cell-based. Conditions: read-out: IC50 MOLT-4. The method, then:
(§1) The cytotoxicity of new derivatives of dicarboximides was tested in HeLa (cervix carcinoma cell line), K562 (myelogenous leukemia cell line), MOLT-4 (Human T-Lymphoid Cell Line), and HUVEC (normal endothelial) cells. First, the viability of cells was determined after 48 h incubation with the screened compounds used at the concentration of 100 μM (data not shown). […] Cells exposed to 1% DMSO (as vehicle) served as the control with 100% survival.
(§2) Human umbilical vein endothelial cells (Life Technologies, Carlsbad, CA, USA) were cultured (according to the manufacturer’s instructions) in Medium 200 containing low serum growth supplement; 1 × 10^4 cells were seeded on each well on a 96-well plate (Nunc, Roskilde, Denmark). The HeLa (human cervix carcinoma), K562, and MOLT-4 (leukemia) cells were cultured in RPMI 1640 medium supplemented with antibiotics and 10% fetal calf serum in a 5% CO2–95% air atmosphere; 7 × 10^3 cells were seeded on each well on a 96-well plate (Nunc). Twenty-four hours later, cells were exposed to the test compounds for additional 48 hours. Stock solutions of test compounds were freshly prepared in DMSO. The final concentrations of the compounds tested in the cell cultures were 2 × 10^−1, 1 × 10^−1, 5 × 10^−2, 1 × 10^−2, 1 × 10^−3, and 1 × 10^−4 mM. The concentration of DMSO in the cell culture medium was 1%. The values of IC50 (the concentration of test compound required to reduce the cell survival fraction to 50% of the control) were calculated from dose–response curves and used as a measure of cellular sensitivity to a given treatment. The cytotoxicity of all compounds was determined by the MTT [3-(4,5-dimethylthiazol-2-yl)-2,5-diphenyltetrazolium bromide; Sigma, St. Louis, MO, USA] assay. Briefly, after 24 or 48 h of incubation with drugs, the cells were treated with the MTT reagent, and incubation was continued for 2 h. MTT-formazan crystals were dissolved in 20% SDS and 50% DMF at pH 4.7, and absorbance was read at 570 and 650 nm on a microplate reader FLUOstar Omega (BMG Labtech, Offenburg, Germany). As a control (100% viability), we used cells grown in the presence of the vehicle (1% DMSO) only.
On the technique in general: Tetrazolium assays rely on reduction of a dye to a coloured formazan, in cell work by metabolically active cells.

For data set [2], the system named is HUVEC (normal endothelial) cells. The data set can be described thus: MTT cytotoxicity assay, HUVEC. It counts as cell-based. Conditions: Homo sapiens, read-out: IC50 HUVEC. On the procedure:
as §1, §2

Data set [3] deals with HeLa (human cervix carcinoma) cells. The data set can be described thus: MTT cytotoxicity assay, HeLa. In kind it is cell-based. Conditions: 48 h incubation, average (SD) of three experiments, read-out: IC50 HeLa. On the procedure:
as §1, §2

Data set [4] has as its system K562 (myelogenous leukemia cell line). In words: MTT cytotoxicity assay, K562. In kind it is cell-based, human. Conditions: 48 h incubation, average (SD) of three experiments, read-out: IC50 K562. On the procedure:
as §1, §2

A short description of data set [5]: MTT cytotoxicity assay, cancer cell lines taken together (HeLa, K562, MOLT-4). In kind it is cell-based. To be noted: human, K562 and MOLT-4 cancer cells. On the procedure: The cytotoxicity of new derivatives of dicarboximides was tested in HeLa (cervix carcinoma cell line), K562 (myelogenous leukemia cell line), MOLT-4 (Human T-Lymphoid Cell Line), and HUVEC (normal endothelial) cells. First, the viability of cells was determined after 48 h incubation with the screened compounds used at the concentration of 100 μM (data not shown). For compounds that reduced the viability of cancer cells by more than 50%, the IC50 values were determined (Table 2). Cells exposed to 1% DMSO (as vehicle) served as the control with 100% survival.
Human umbilical vein endothelial cells (Life Technologies, Carlsbad, CA, USA) were cultured (according to the manufacturer’s instructions) in Medium 200 containing low serum growth supplement; 1 × 10^4 cells were seeded on each well on a 96-well plate (Nunc, Roskilde, Denmark). […] The cytotoxicity of all compounds was determined by the MTT [3-(4,5-dimethylthiazol-2-yl)-2,5-diphenyltetrazolium bromide; Sigma, St. Louis, MO, USA] assay. […] MTT-formazan crystals were dissolved in 20% SDS and 50% DMF at pH 4.7, and absorbance was read at 570 and 650 nm on a microplate reader FLUOstar Omega (BMG Labtech, Offenburg, Germany). […]

Data set [6] concerns caspase 3/7 in K562 cells. The data set can be described thus: Caspase-3/7 activity assay (Apo-ONE) in K562 cells. In kind it is cell-based, human. Conditions: K562, 18 h, test compound at 5xIC50, staurosporine 1 μM; vs 1% DMSO. The method, then: After incubation for 18 h, K562 cells were lysed and the activity of caspase 3/7 was measured using a profluorescent peptide substrate.
First, 20 × 10^3 K562 cells were seeded on each well of a 96-well plate in RPMI 1640 medium supplemented with 10% fetal calf serum and antibiotics. Cells were grown for 24 h at 37 °C and 5% CO2. Test dicarboximides were dissolved in DMSO and added to cell culture to the final concentration of 5 × IC50. […] Cells were exposed to test compounds for 18 h at 37 °C and 5% CO2. Subsequently, the activity of caspase 3 and 7 was measured by Apo-ONE® Homogeneous Caspase-3/7 Assay (Promega, Madison, WI, USA) according to the manufacturer’s instructions. Briefly, the cells were lysed and incubated for 1.5 h with a profluorescent substrate for caspase 3 and 7. Next, the fluorescence was read at an excitation wavelength of 485 nm and emission of 520 nm with a FLUOStar Omega microplate reader (BMG-Labtech, Offenburg, Germany).

The test system of data set [7] is plasmid DNA (pcDNA3.1HisC). The data set can be described thus: DNA-cleavage protection assay (BamHI digestion of plasmid DNA). It counts as biochemical. To be noted: 100 µM, overnight 37 °C, then BamHI 3 h. On the procedure: A DNA-cleavage protection assay has been successfully used for the identification of compounds that bind DNA either covalently or noncovalently. Such binding may result in DNA being less susceptible to enzymatic cleavage. […] It was also reported that naphtalenoimides or indolomaleimides intercalate into DNA [13, 14]. […] In CD studies, a synthetic 23-nt duplex DNA or bovine thymus DNA was incubated with compound Ic or daunorubicin (reference compound). […] Using a DNA-cleavage protection assay, we investigated whether selected compounds 2c, 2d, and 2f and 3c, 3d, and 3f interact with a plasmid DNA, resulting in increased resistance to endonucleolytic cleavage. Plasmid DNA (pcDNA3.1HisC) containing a single BamHI cleavage site was incubated with test compounds and subsequently digested with BamH1 restriction endonuclease. Daunorubicin (a strong DNA-intercalating agent) was used as a reference compound. Non-digested plasmid DNA existed predominantly in the circular form; however, the superhelical and linear forms were also detected (Figure 5, lane 1). […] This observation can be explained by the higher lipophilicity of 3c, 3d, and 3f compared to 2c, 2d, and 2f, which may facilitate their more efficient binding to DNA.
First, 0.5 μg of plasmid DNA (pcDNAHisC, total length 5.5 kbp) containing a unique BamHI restriction site was dissolved in a 1× BamHI reaction buffer and incubated overnight at 37 °C with the test compounds or daunorubicin. Daunorubicin, a strong intercalating agent, was used as a positive control. The concentration of the test compounds and daunorubicin samples was 100 µM. In the next step, the reaction mixtures were digested with BamHI restriction endonuclease (2 U/μL) for 3 h at 37 °C. The total reaction volume was 10 μL. Products of the reaction were subjected to the 1% agarose gel electrophoresis in TBE buffer. The gel was stained with ethidium bromide, and DNA fragments were visualized under a UV lamp (GBox, Syngene).

The mark [8] stands for this setting: MOLT-4, 48 h incubation, average (SD) of three experiments.
Setting [9] is: 48 h incubation, average (SD) of three experiments.

For orientation: IC50 means the concentration needed to halve the response being measured. Usually melting point stands for the temperature, or range, at which the solid turns liquid. The compound `CC12C(=O)C(C)(C(c3ccccc3)=C1c1ccccc1)C1C(=O)N(CCCl)C(=O)C12` (stereo not shown) [1h, 4-(2-chloroethyl)-1,7-dimethyl-8,9-diphenyl-4-azatricyclo[5.2.1.0^2,6]dec-8-ene-3,5,10-trione] displayed a melting point of 190 to 191 °C. In data set [1] (MOLT-4, 48 h), the IC50 came to 20 µM. Further, the IC50 in data set [2] (48 h) was determined as 64 µM.
As to `CC12C(=O)C(C)(C(c3ccccc3)=C1c1ccccc1)C1C(=O)N(CCO)C(=O)C12` (stereo not shown) [compound 4, 4-(2-hydroxyethyl)-1,7-dimethyl-8,9-diphenyl-4-azatricyclo[5.2.1.0^2,6]dec-8-ene-3,5,10-trione], the melting point was 186 to 187 °C. In data set [3], the IC50 was determined as 61 µM. Also, in data set [4] (Homo sapiens, K562, 48 h), the IC50 was determined as 105 µM. Further, the IC50 in data set [1] (setting [8]) was determined as 71 µM. The IC50 in data set [2] (setting [9]) was determined as 56 µM.
As a reminder, the viability is a per cent measure of how many cells are alive, often set against a control. Higher therefore signals less harm to the cells. `CN[C@@H]1C[C@H]2O[C@@](C)([C@@H]1OC)n1c3ccccc3c3c4c(c5c6ccccc6n2c5c31)C(=O)NC4` [staurosporine, reference compound] gave a viability at 48 h, 1 µM in data set [5] of 44 to 49%. Also, the “activity of caspase 3/7” value in data set [6] is “strongly activated caspase 3/7”.
As for `O=C1C2C(C(=O)N1CC(O)CN1CCCCC1)C1(c3ccccc3)CC2(c2ccccc2)C(c2ccccc2)=C1c1ccccc1` (stereo not shown) (as salt: HCl) [3f, 4-[2-hydroxy-3-(piperidin-1-yl)propyl]-1,7,8,9-tetraphenyl-4-azatricyclo[5.2.1.0^2,6]dec-8-ene-3,5-dione], the melting point fell in the range of 268 to 270 °C.
In the case of `CC12C(=O)C(C)(C(c3ccccc3)=C1c1ccccc1)C1C(=O)N(CC(O)CN3CCCCC3)C(=O)C12` (stereo not shown) (as salt: HCl) [1f, 4-[2-hydroxy-3-(piperidin-1-yl)propyl]-1,7-dimethyl-8,9-diphenyl-4-azatricyclo[5.2.1.0^2,6]dec-8-ene-3,5,10-trione], the melting point was in the range of 170 to 171 °C.
As to `CCC12C(=O)C(CC)(C(c3ccccc3)=C1c1ccccc1)C1C(=O)N(CC(O)CN3CCCCC3)C(=O)C12` (stereo not shown) [2f, 4-[2-hydroxy-3-(piperidin-1-yl)propyl]-1,7-diethyl-8,9-diphenyl-4-azatricyclo[5.2.1.0^2,6]dec-8-ene-3,5,10-trione], the IC50 was 5.1 µM in data set [3]; 3.9 µM in data set [4]; less than 6 µM in data set [4] (Homo sapiens, K562, 48 h); 3.4 µM in data set [1] (setting [8]); 3.1 µM in data set [2] (setting [9]). Also, the “activity of caspase 3/7” value in data set [6] was “over eight-fold increase in caspase activity; also recorded: activated caspase 3 and 7”. Moreover, in data set [7], the “protection of plasmid DNA from BamHI digestion (circular DNA left)” value (from here on “protection of plasmid DNA”) is on record as “the circular form was also detected”.
As to `CC12C(=O)C(C)(C(c3ccccc3)=C1c1ccccc1)C1C(=O)N(CCN3CCOCC3)C(=O)C12` (stereo not shown) (as salt: HCl) [1j, 4-[2-(morpholin-4-yl)ethy]-1,7-dimethyl-8,9-diphenyl-4-azatricyclo[5.2.1.0^2,6]dec-8-ene-3,5,10-trione], the melting point is 227 to 228 °C.
On to `O=C1C2C(C(=O)N1CC(O)CN1CCCCC1)C1(c3ccccc3)CC2(c2ccccc2)C(c2ccccc2)=C1c1ccccc1` (stereo not shown) [3f, 4-[2-hydroxy-3-(piperidin-1-yl)propyl]-1,7,8,9-tetraphenyl-4-azatricyclo[5.2.1.0^2,6]dec-8-ene-3,5-dione], for which the IC50 in data set [3] was 3 µM; in data set [4], 3 µM; in data set [4] (Homo sapiens, K562, 48 h) it was less than 6 µM; in data set [1] (setting [8]), 3 µM; in data set [2] (setting [9]), 0.4 µM. Moreover, in data set [6], the “activity of caspase 3/7” value was “activated caspase 3/7 to a lesser extent; also recorded: activated caspase 3 and 7”. In data set [7], the “protection of plasmid DNA” value is on record as “interaction seems to be stronger”.
Regarding `COc1cccc2c1C(=O)c1c(O)c3c(c(O)c1C2=O)C[C@@](O)(C(C)=O)C[C@@H]3O[C@H]1C[C@H](N)[C@H](O)[C@H](C)O1` [daunorubicin, reference compound], the “protection of plasmid DNA” value in data set [7] is given as “prevented linearization of DNA”.
The compound `O=C1C2C(C(=O)N1CCO)C1(c3ccccc3)CC2(c2ccccc2)C(c2ccccc2)=C1c1ccccc1` (stereo not shown) [compound 5, 4-(2-hydroxyethyl)-1,7,8,9-tetraphenyl-4-azatricyclo[5.2.1.02,6]dec-8-ene-3,5-dione] had a melting point of 197 to 198 °C. The IC50 in data set [3] came to 8 µM. For the same compound, the IC50 in data set [4] (Homo sapiens, K562, 48 h) is 6.2 µM. The IC50 in data set [1] (setting [8]) stood at 2.1 µM. Also, the IC50 in data set [2] (setting [9]) was 0.7 µM.
The compound `CCC12C(=O)C(CC)(C(c3ccccc3)=C1c1ccccc1)C1C(=O)N(CC(O)CN3CCCCC3)C(=O)C12` (stereo not shown) (as salt: HCl) [2f, 4-[2-hydroxy-3-(piperidin-1-yl)propyl]-1,7-diethyl-8,9-diphenyl-4-azatricyclo[5.2.1.0^2,6]dec-8-ene-3,5,10-trione] gave a melting point of 190 to 195 °C.
